For 38 compounds, IC50, logD and inhibition results are on record in ChEMBL document CHEMBL1949578, “Inhibitors of acetyltransferase domain of N-acetylglucosamine-1-phosphate-uridyltransferase/glucosamine-1-phosphate-acetyltransferase (GlmU). Part 1: Hit to lead evaluation of a novel arylsulfonamide series” (Bioorg Med Chem Lett, 2012).

The nature of data set [1]: Inhibition of Escherichia coli acetyltransferase activity of GlmU using acetyl-CoA and glucosamine-1-phosphate after 30 mins by Ellman's method. In general terms: In Ellman's method for cholinesterases, released thiocholine reacts with DTNB.
Data set [2] in a line: Lipophilicity, log D of the compound at pH 7.4. The conditions noted are these: buffer.
A short description of data set [3]: Inhibition of Staphylococcus aureus acetyltransferase activity of GlmU using acetyl-CoA and glucosamine-1-phosphate after 30 mins by Ellman's method.
For data set [4], the target named is Bifunctional protein GlmU (Streptococcus pneumoniae serotype 4 (strain ATCC BAA-334 / TIGR4), UniProt Q97R46). Briefly: (§1) Inhibition of Streptococcus pneumoniae acetyltransferase activity of GlmU using acetyl-CoA and glucosamine-1-phosphate after 30 mins by Ellman's method.
Sequence of Bifunctional protein GlmU (Q97R46 whole entry): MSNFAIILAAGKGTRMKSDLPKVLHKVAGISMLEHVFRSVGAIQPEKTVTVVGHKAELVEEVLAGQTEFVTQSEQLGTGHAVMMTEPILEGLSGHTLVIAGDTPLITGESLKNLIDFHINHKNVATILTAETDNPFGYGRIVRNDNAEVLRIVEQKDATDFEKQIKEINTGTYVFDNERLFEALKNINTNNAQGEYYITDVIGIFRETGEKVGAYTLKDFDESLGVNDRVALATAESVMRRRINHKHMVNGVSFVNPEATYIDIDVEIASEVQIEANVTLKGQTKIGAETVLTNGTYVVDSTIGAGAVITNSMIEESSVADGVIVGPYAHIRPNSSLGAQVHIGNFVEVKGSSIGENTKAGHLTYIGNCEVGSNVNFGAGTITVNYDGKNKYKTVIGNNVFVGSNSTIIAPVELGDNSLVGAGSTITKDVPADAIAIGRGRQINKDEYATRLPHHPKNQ
The nature of data set [5]: Inhibition of Haemophilus influenzae acetyltransferase activity of GlmU using acetyl-CoA and glucosamine-1-phosphate after 30 mins by Ellman's method.
Data set [6] deals with Bifunctional protein GlmU (Streptococcus pneumoniae serotype 4 (strain ATCC BAA-334 / TIGR4)) (UniProt Q97R46). The description is as §1.
Sequence of Bifunctional protein GlmU (Streptococcus pneumoniae serotype 4 (strain ATCC BAA-334 / TIGR4)) (Q97R46 whole entry): as above

Turning to `COc1cc(OC)c(S(=O)(=O)NCc2ccccc2N2CCC(COC(=O)CCC(=O)O)CC2)cc1NC(=O)CCC(=O)O`, the figures for the IC50 in data set [1] and in data set [3] were 0.25 µM and over 200 µM, respectively. This compound also yielded a logD in data set [2] of -1.

As to `COc1cc(OC)c(S(=O)(=O)N2c3ccccc3CCC2C)cc1NS(C)(=O)=O` (stereo not drawn), the 50% inhibitory concentration (IC50) was over 200 µM in data set [4], 100 µM in data set [1], over 200 µM in data set [5] and over 200 µM in data set [3].

With `COc1cc(OC)c(S(=O)(=O)N(C)C)cc1NC(C)=O`, the IC50 in data set [4], in data set [1], in data set [5] and in data set [3] was over 200 µM throughout.

`COc1cc(OC)c(S(=O)(=O)Nc2ccccc2)cc1NC(C)=O`: the IC50 in data set [4] is over 200 µM; in data set [1], 20 µM; in data set [5] it was 70 µM; in data set [3] it was over 200 µM.

`COC(=O)c1ccccc1CNS(=O)(=O)c1cc(NC(C)=O)c(OC)cc1OC`: the IC50 is over 200 µM in data set [4], 15 µM in data set [1], 55 µM in data set [5] and over 200 µM in data set [3].

In the case of `COc1cc(OC)c(S(=O)(=O)N2c3ccccc3CCC2C)cc1NC(=O)COC(C)=O` (stereo not drawn), the IC50 in data set [4] is 90 µM; in data set [1] it was 2 µM; in data set [5], 2 µM; in data set [3] it was over 200 µM.

Take `COc1cc(OC)c(S(=O)(=O)NCc2ccccc2N2CCC(C(=O)O)CC2)cc1NC(=O)CCC(=O)O`: the IC50 is 2 µM in data set [4], 0.5 µM in data set [1], 1 µM in data set [5] and 50 µM in data set [3].

Turning to `COc1cc(OC)c(S(=O)(=O)Nc2ccc(F)cc2)cc1NC(C)=O`, the IC50 in data set [4] was over 200 µM; in data set [1], 25 µM; in data set [5], 60 µM; in data set [3], over 200 µM.

In the case of `COc1cc(OC)c(S(=O)(=O)NCc2ccccc2Br)cc1NC(C)=O`, the IC50 was over 200 µM in data set [4], 4 µM in data set [1], 20 µM in data set [5] and over 200 µM in data set [3].

The compound `COc1cc(OC)c(S(=O)(=O)N2c3ccccc3CCC2C)cc1NC(=O)COCC(=O)O` (stereo not drawn) displayed an inhibition in data set [6] of 28%. Besides, the IC50 in data set [1] was 0.2 µM; in data set [5], 0.3 µM; in data set [3], over 200 µM. The compound further yielded a logD in data set [2] of -1.

On to `COc1cc(OC)c(S(=O)(=O)N2c3ccccc3CCC2C)cc1NC(=O)COc1ccc(C(C)=O)cc1` (stereo not drawn), for which the IC50 in data set [4], in data set [1], in data set [5] and in data set [3] was over 200 µM each time.

Consider `CCN(c1ccccc1C)S(=O)(=O)c1cc(NC(C)=O)c(OC)cc1OC`, for which the IC50 is over 200 µM in data set [4], 15 µM in data set [1], 80 µM in data set [5] and over 200 µM in data set [3].

For `COc1cc(OC)c(S(=O)(=O)NCc2ccccc2-c2ccc(C(=O)O)cc2)cc1NC(=O)CCC(=O)O`, the IC50 in data set [4] is 15 µM; in data set [1], 0.9 µM; in data set [5], 5 µM.

Turning to `COc1cc(OC)c(S(=O)(=O)N2c3ccccc3CC2C)cc1NC(C)=O` (stereo not drawn), the IC50 in data set [4] is over 200 µM; in data set [5], 8 µM; in data set [3], over 200 µM.

On to `COc1cc(OC)c(S(=O)(=O)N2c3ccccc3CCC2C)cc1NC(=O)NCC(=O)O` (stereo not drawn), for which the IC50 in data set [4] is 20 µM; in data set [1] it was 0.5 µM; in data set [5] it was 5 µM; in data set [3] it was over 200 µM. Also, the logD in data set [2] is -1.02.

Turning to `COc1cc(OC)c(S(=O)(=O)N(C)c2ccccc2)cc1NC(C)=O`, the IC50 is over 200 µM in data set [4], 3 µM in data set [1], 6 µM in data set [5] and over 200 µM in data set [3].

With `COc1cc(OC)c(S(=O)(=O)N2CCCCC2C)cc1NC(C)=O` (stereo not drawn), the IC50 was over 200 µM in data set [4], 130 µM in data set [1], over 200 µM in data set [5] and over 200 µM in data set [3].

Take `COc1cc(OC)c(S(=O)(=O)N2CCCCC2)cc1NC(C)=O`: the IC50 in data set [4] was over 200 µM; in data set [1], 80 µM; in data set [5], over 200 µM; in data set [3] it was over 200 µM.

Consider `COc1cc(OC)c(S(=O)(=O)NCc2ccccc2N2CCCCC2)cc1NC(C)=O`, for which the IC50 is over 200 µM in data set [1], 120 µM in data set [5] and over 200 µM in data set [3].

Consider `COc1cc(OC)c(S(=O)(=O)NCc2ccc3c(c2)OCO3)cc1NC(C)=O`, for which the IC50 in data set [4], in data set [1], in data set [5] and in data set [3] was over 200 µM each time.

Consider `COc1cc(OC)c(S(=O)(=O)N2c3ccccc3CCC2C)cc1NC(=O)CSc1ccncc1` (stereo not drawn), for which the IC50 in data set [4] is over 200 µM; in data set [1] it was 1 µM; in data set [5], 6 µM; in data set [3] it was over 200 µM. This compound returned a logD in data set [2] of 2.8.

As to `COc1cc(OC)c(S(=O)(=O)N2c3ccccc3CCC2C)cc1NC(=O)CCC(=O)O` (stereo not drawn), the IC50 in data set [4] is 20 µM; in data set [1] it was 0.09 µM; in data set [5], 0.6 µM; in data set [3], over 200 µM. Besides, the logD in data set [2] is -0.87.

Consider `COc1cc(OC)c(S(=O)(=O)N2c3ccccc3CCC2C)cc1NC(=S)NCC(=O)O` (stereo not drawn), for which the IC50 in data set [4] is 30 µM; in data set [1], 0.5 µM; in data set [5], 1 µM; in data set [3], over 200 µM. In data set [2], this compound registered a logD of -1.04.

Turning to `COc1cc(OC)c(S(=O)(=O)NCc2ccccc2N2CCC(CO)CC2)cc1NC(C)=O`, the IC50 in data set [4] was 70 µM; in data set [1], 40 µM; in data set [5] it was 80 µM; in data set [3] it was over 200 µM. Besides, in data set [2], the logD is 1.03.

`COc1cc(OC)c(S(=O)(=O)N2c3ccccc3CCC2C)cc1NC(=O)c1ccccc1` (stereo not drawn): the IC50 in data set [4], in data set [1], in data set [5] and in data set [3] was over 200 µM in each case.

With `COc1cc(OC)c(S(=O)(=O)Nc2ccccc2F)cc1NC(C)=O`, the IC50 is over 200 µM in data set [4], 5 µM in data set [1], 10 µM in data set [5] and over 200 µM in data set [3].

For the compound `COc1cc(OC)c(S(=O)(=O)N(c2ccccc2)C(C)C)cc1NC(C)=O`, the IC50 in data set [4] is over 200 µM; in data set [1], 2 µM; in data set [5], 16 µM; in data set [3], over 200 µM.

Take `COc1ccccc1CNS(=O)(=O)c1cc(NC(C)=O)c(OC)cc1OC`: the IC50 in data set [4] was over 200 µM; in data set [1] it was 10 µM; in data set [5] it was 54 µM; in data set [3] it was over 200 µM.

In the case of `COc1cc(OC)c(S(=O)(=O)NCc2ccccc2N2CCC(CC(=O)O)CC2)cc1NC(=O)CCC(=O)O`, the IC50 in data set [4] was 2 µM; in data set [1], under 0.4 µM; in data set [5], 3 µM; in data set [3], 10 µM.

Consider `COc1cc(OC)c(S(=O)(=O)N2c3ccccc3CCC2C)cc1NC(=O)/C=C/C(=O)O` (stereo not drawn), for which the IC50 was 10 µM in data set [4], 0.5 µM in data set [1], 2 µM in data set [5] and over 200 µM in data set [3].

With `COc1cc(OC)c(S(=O)(=O)N2c3ccccc3CCC2C)cc1NC(=O)CSCC(=O)O` (stereo not drawn), the IC50 is over 200 µM in data set [4], 0.1 µM in data set [1], 0.2 µM in data set [5] and over 200 µM in data set [3]. This compound registered a logD in data set [2] of -1.2.

`COc1cc(OC)c(S(=O)(=O)Nc2ccc(C)cc2)cc1NC(C)=O`: the IC50 in data set [4] is over 200 µM; in data set [1], 21 µM; in data set [5], 47 µM; in data set [3], over 200 µM.

With `COc1cc(OC)c(S(=O)(=O)Nc2cccc(C)c2)cc1NC(C)=O`, the IC50 is over 200 µM in data set [4], 17 µM in data set [1], 40 µM in data set [5] and over 200 µM in data set [3].

Regarding `COc1cc(OC)c(S(=O)(=O)N2c3ccccc3CCC2C)cc1NC(C)=O` (stereo not drawn), the IC50 in data set [4] was 55 µM; in data set [1] it was 1.5 µM; in data set [5], 3 µM; in data set [3], over 200 µM. In addition, in data set [2], the logD worked out at 1.97.

On to `COc1cc(OC)c(S(=O)(=O)NCc2ccccc2N2CCCCC2)cc1NC(=O)CCC(=O)O`, for which the IC50 in data set [4] was 12 µM; in data set [1], 3 µM; in data set [5], 5 µM; in data set [3] it was over 200 µM. Also, the logD in data set [2] is -0.72.

With `COc1cc(OC)c(S(=O)(=O)NCc2ccccc2N2CCC(CO)CC2)cc1NC(=O)CCC(=O)O`, the IC50 in data set [4] was 5 µM; in data set [1] it was 3 µM; in data set [5], 6 µM; in data set [3], over 200 µM. Further, in data set [2], the logD is under -1.

Turning to `COc1cc(OC)c(S(=O)(=O)N2CCCC2C)cc1NC(C)=O` (stereo not drawn), the IC50 in data set [4], in data set [1], in data set [5] and in data set [3] was over 200 µM in each case.

Take `COc1cc(OC)c(S(=O)(=O)Nc2cccc(F)c2)cc1NC(C)=O`: the IC50 in data set [4] was over 200 µM; in data set [1], 15 µM; in data set [5] it was 30 µM; in data set [3] it was over 200 µM.

As a reminder, the IC50 is the concentration that gives 50% inhibition. By logD is commonly meant lipophilicity at a set pH, counting ionised and neutral species. A high value points to a more lipophilic compound. What is called inhibition is the share of the control response that was lost under treatment. Read a low inhibition as a weak effect.
